Measurements: US20120214862A1, “MODULATION OF FACTOR 7 EXPRESSION” (ISIS Pharmaceuticals, Inc., priority 2009, published 2012)
In the oligonucleotide strings, read from the 5' end, every base follows the letter of its sugar. An asterisk marks phosphorothioate; unmarked linkages are phosphodiester. Other units and linkages are bracketed, terminal groups are in braces. A string of capitals states the bases alone. e = 2'-O-(2-methoxyethyl) (MOE); [5mC] = 5-methylcytosine; d = 2'-deoxy (DNA)

system: human Factor 7 mRNA; assay: Antisense inhibition of human Factor 7 mRNA in HepB3 cells, lipofectin, 50 nM, real-time RT-PCR; assay type: cell-based; settings: Example 4; HepB3 cells, lipofectin, 50 nM, ~24 h, relative to untreated control
Outline: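 4,000 cells/well; ~24 h exposure; RNA isolated; probe set RTS 2927; normalised to RIBOGREEN® total RNA; % inhibition vs untreated.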

Q: Which “% Inhibition (human Factor 7 mRNA)” value does the source give for “422186 (antisense eG*eG*eA*dA*dG*dA*dA*dG*dG*dG*dA*d[5mC]*dG*dG*dA*dA*dG*eG*eT*eG) [compound 422186]” here?
A: 14%

Q: How did the “% Inhibition (human Factor 7 mRNA)” value turn out when “422187 (antisense e[5mC]*eG*eG*dA*dA*dG*dA*dA*dG*dG*dG*dA*d[5mC]*dG*dG*dA*dA*eG*eG*eT) [compound 422187]” was run?
A: 28%

Q: With “422188 (antisense eG*e[5mC]*eG*dG*dA*dA*dG*dA*dA*dG*dG*dG*dA*d[5mC]*dG*dG*dA*eA*eG*eG) [compound 422188]” as the substance, how does the “% Inhibition (human Factor 7 mRNA)” value read?
A: 37%

Q: “422189 (antisense e[5mC]*eG*e[5mC]*dG*dG*dA*dA*dG*dA*dA*dG*dG*dG*dA*d[5mC]*dG*dG*eA*eA*eG) [compound 422189]” was tested. Which “% Inhibition (human Factor 7 mRNA)” value did it give?
A: 0%

Q: How did the “% Inhibition (human Factor 7 mRNA)” value turn out when “422190 (antisense eG*e[5mC]*eG*d[5mC]*dG*dG*dA*dA*dG*dA*dA*dG*dG*dG*dA*d[5mC]*dG*eG*eA*eA) [compound 422190]” was run?
A: 12%

Q: “422191 (antisense eA*eG*e[5mC]*dG*d[5mC]*dG*dG*dA*dA*dG*dA*dA*dG*dG*dG*dA*d[5mC]*eG*eG*eA) [compound 422191]” was tested. Which “% Inhibition (human Factor 7 mRNA)” value did it give?
A: 27%

Q: Which “% Inhibition (human Factor 7 mRNA)” value does the source give for “422192 (antisense eG*eA*eG*d[5mC]*dG*d[5mC]*dG*dG*dA*dA*dG*dA*dA*dG*dG*dG*dA*e[5mC]*eG*eG) [compound 422192]” here?
A: 27%

Q: “422193 (antisense eT*eG*eA*dG*d[5mC]*dG*d[5mC]*dG*dG*dA*dA*dG*dA*dA*dG*dG*dG*eA*e[5mC]*eG) [compound 422193]” was tested. Which “% Inhibition (human Factor 7 mRNA)” value did it give?
A: 6%

Q: For “422194 (antisense e[5mC]*eT*eG*dA*dG*d[5mC]*dG*d[5mC]*dG*dG*dA*dA*dG*dA*dA*dG*dG*eG*eA*e[5mC]) [compound 422194]”, which “% Inhibition (human Factor 7 mRNA)” value is on record?
A: 11%

Q: How did the “% Inhibition (human Factor 7 mRNA)” value turn out when “422195 (antisense eA*e[5mC]*eT*dG*dA*dG*d[5mC]*dG*d[5mC]*dG*dG*dA*dA*dG*dA*dA*dG*eG*eG*eA) [compound 422195]” was run?
A: 37%

Q: For “422196 (antisense eT*eA*e[5mC]*dT*dG*dA*dG*d[5mC]*dG*d[5mC]*dG*dG*dA*dA*dG*dA*dA*eG*eG*eG) [compound 422196]”, which “% Inhibition (human Factor 7 mRNA)” value is on record?
A: 2%

Q: For “422197 (antisense eT*eT*eA*d[5mC]*dT*dG*dA*dG*d[5mC]*dG*d[5mC]*dG*dG*dA*dA*dG*dA*eA*eG*eG) [compound 422197]”, which “% Inhibition (human Factor 7 mRNA)” value is on record?
A: 26%

Q: Which “% Inhibition (human Factor 7 mRNA)” value does the source give for “422198 (antisense eG*eT*eT*dA*d[5mC]*dT*dG*dA*dG*d[5mC]*dG*d[5mC]*dG*dG*dA*dA*dG*eA*eA*eG) [compound 422198]” here?
A: 50%

Q: For “422199 (antisense eG*eG*eT*dT*dA*d[5mC]*dT*dG*dA*dG*d[5mC]*dG*d[5mC]*dG*dG*dA*dA*eG*eA*eA) [compound 422199]”, which “% Inhibition (human Factor 7 mRNA)” value is on record?
A: 65%

same assay, conditions: Example 6 microwalk, nucleobases 15098 to 15122 of SEQ ID NO: 1; HepB3, lipofectin, 50 nM, ~24 h

Q: With “422207 (antisense e[5mC]*eA*e[5mC]*dA*d[5mC]*dA*dT*dG*dG*dA*dG*dT*d[5mC]*dA*dG*d[5mC]*dA*eT*e[5mC]*eG) [compound 422207]” as the substance, how does the “% Inhibition (human Factor 7 mRNA)” value read?
A: 41%

Q: “422208 (antisense eG*e[5mC]*eA*d[5mC]*dA*d[5mC]*dA*dT*dG*dG*dA*dG*dT*d[5mC]*dA*dG*d[5mC]*eA*eT*e[5mC]) [compound 422208]” was tested. Which “% Inhibition (human Factor 7 mRNA)” value did it give?
A: 56%

Q: Which “% Inhibition (human Factor 7 mRNA)” value does the source give for “422209 (antisense eA*eG*e[5mC]*dA*d[5mC]*dA*d[5mC]*dA*dT*dG*dG*dA*dG*dT*d[5mC]*dA*dG*e[5mC]*eA*eT) [compound 422209]” here?
A: 47%

Q: How did the “% Inhibition (human Factor 7 mRNA)” value turn out when “422210 (antisense e[5mC]*eA*eG*d[5mC]*dA*d[5mC]*dA*d[5mC]*dA*dT*dG*dG*dA*dG*dT*d[5mC]*dA*eG*e[5mC]*eA) [compound 422210]” was run?
A: 25%

Q: With “422211 (antisense eA*e[5mC]*eA*dG*d[5mC]*dA*d[5mC]*dA*d[5mC]*dA*dT*dG*dG*dA*dG*dT*d[5mC]*eA*eG*e[5mC]) [compound 422211]” as the substance, how does the “% Inhibition (human Factor 7 mRNA)” value read?
A: 42%

Q: How did the “% Inhibition (human Factor 7 mRNA)” value turn out when “422212 (antisense eG*eA*e[5mC]*dA*dG*d[5mC]*dA*d[5mC]*dA*d[5mC]*dA*dT*dG*dG*dA*dG*dT*e[5mC]*eA*eG) [compound 422212]” was run?
A: 30%

same assay, conditions: HepB3 cells; gapmers (5-10-5, 3-14-3, 2-13-5 MOE) targeted to nucleobases 4868 to 4899 of SEQ ID NO: 1

Q: For “422213 (antisense eT*e[5mC]*eT*dG*d[5mC]*dA*dG*dG*dA*dG*d[5mC]*dG*dG*d[5mC]*d[5mC]*dT*dA*eA*eA*eT) [compound 422213]”, which “% Inhibition of human Factor 7 mRNA levels” value is on record?
A: 67%

Q: How did the “% Inhibition of human Factor 7 mRNA levels” value turn out when “422214 (antisense eT*eT*e[5mC]*dT*dG*d[5mC]*dA*dG*dG*dA*dG*d[5mC]*dG*dG*d[5mC]*d[5mC]*dT*eA*eA*eA) [compound 422214]” was run?
A: 60%

same assay, conditions: HepB3 cells; gapmers targeted to nucleobases 11830 to 11869 of SEQ ID NO: 1 (Table 9)

Q: With “422170 (antisense eG*e[5mC]*eT*dG*dA*dG*dG*dA*dG*dA*d[5mC]*dA*dA*dT*dG*dG*dT*e[5mC]*eA*eG) [compound 422170]” as the substance, how does the “% Inhibition of human Factor 7 mRNA levels” value read?
A: 28%

Q: Which “% Inhibition of human Factor 7 mRNA levels” value does the source give for “422171 (antisense eG*eG*e[5mC]*dT*dG*dA*dG*dG*dA*dG*dA*d[5mC]*dA*dA*dT*dG*dG*eT*e[5mC]*eA) [compound 422171]” here?
A: 61%

Q: For “422172 (antisense eT*eG*eG*d[5mC]*dT*dG*dA*dG*dG*dA*dG*dA*d[5mC]*dA*dA*dT*dG*eG*eT*e[5mC]) [compound 422172]”, which “% Inhibition of human Factor 7 mRNA levels” value is on record?
A: 39%

Q: Which “% Inhibition of human Factor 7 mRNA levels” value does the source give for “422173 (antisense e[5mC]*eT*eG*dG*d[5mC]*dT*dG*dA*dG*dG*dA*dG*dA*d[5mC]*dA*dA*dT*eG*eG*eT) [compound 422173]” here?
A: 51%

Q: With “422174 (antisense eG*e[5mC]*eT*dG*dG*d[5mC]*dT*dG*dA*dG*dG*dA*dG*dA*d[5mC]*dA*dA*eT*eG*eG) [compound 422174]” as the substance, how does the “% Inhibition of human Factor 7 mRNA levels” value read?
A: 55%

same assay, conditions: HepB3 cells; gapmers targeted to nucleobases 13760 to 13789 of SEQ ID NO: 1 (Table 10)

Q: With “422175 (antisense e[5mC]*eG*e[5mC]*d[5mC]*dG*dG*d[5mC]*dT*d[5mC]*dT*dG*d[5mC]*dT*d[5mC]*dA*dT*d[5mC]*e[5mC]*e[5mC]*e[5mC]) [compound 422175]” as the substance, how does the “% Inhibition of human Factor 7 mRNA levels” value read?
A: 69%

Q: With “422176 (antisense e[5mC]*e[5mC]*eG*d[5mC]*d[5mC]*dG*dG*d[5mC]*dT*d[5mC]*dT*dG*d[5mC]*dT*d[5mC]*dA*dT*e[5mC]*e[5mC]*e[5mC]) [compound 422176]” as the substance, how does the “% Inhibition of human Factor 7 mRNA levels” value read?
A: 52%

Q: With “422178 (antisense eA*e[5mC]*e[5mC]*d[5mC]*dG*d[5mC]*d[5mC]*dG*dG*d[5mC]*dT*d[5mC]*dT*dG*d[5mC]*dT*d[5mC]*eA*eT*e[5mC]) [compound 422178]” as the substance, how does the “% Inhibition of human Factor 7 mRNA levels” value read?
A: 37%

Q: How did the “% Inhibition of human Factor 7 mRNA levels” value turn out when “422179 (antisense e[5mC]*eA*e[5mC]*d[5mC]*d[5mC]*dG*d[5mC]*d[5mC]*dG*dG*d[5mC]*dT*d[5mC]*dT*dG*d[5mC]*dT*e[5mC]*eA*eT) [compound 422179]” was run?
A: 43%

Q: “422180 (antisense e[5mC]*e[5mC]*eA*d[5mC]*d[5mC]*d[5mC]*dG*d[5mC]*d[5mC]*dG*dG*d[5mC]*dT*d[5mC]*dT*dG*d[5mC]*eT*e[5mC]*eA) [compound 422180]” was tested. Which “% Inhibition of human Factor 7 mRNA levels” value did it give?
A: 54%

Q: How did the “% Inhibition of human Factor 7 mRNA levels” value turn out when “422181 (antisense eG*e[5mC]*e[5mC]*dA*d[5mC]*d[5mC]*d[5mC]*dG*d[5mC]*d[5mC]*dG*dG*d[5mC]*dT*d[5mC]*dT*dG*e[5mC]*eT*e[5mC]) [compound 422181]” was run?
A: 66%

Q: Which “% Inhibition of human Factor 7 mRNA levels” value does the source give for “422182 (antisense e[5mC]*eG*e[5mC]*d[5mC]*dA*d[5mC]*d[5mC]*d[5mC]*dG*d[5mC]*d[5mC]*dG*dG*d[5mC]*dT*d[5mC]*dT*eG*e[5mC]*eT) [compound 422182]” here?
A: 11%

Q: With “422184 (antisense eT*eG*e[5mC]*dG*d[5mC]*d[5mC]*dA*d[5mC]*d[5mC]*d[5mC]*dG*d[5mC]*d[5mC]*dG*dG*d[5mC]*dT*e[5mC]*eT*eG) [compound 422184]” as the substance, how does the “% Inhibition of human Factor 7 mRNA levels” value read?
A: 55%

Q: Which “% Inhibition of human Factor 7 mRNA levels” value does the source give for “422185 (antisense e[5mC]*eT*eG*d[5mC]*dG*d[5mC]*d[5mC]*dA*d[5mC]*d[5mC]*d[5mC]*dG*d[5mC]*d[5mC]*dG*dG*d[5mC]*eT*e[5mC]*eT) [compound 422185]” here?
A: 48%

same assay, conditions: HepB3 cells; gapmers targeted to nucleobases 14707 to 14732 of SEQ ID NO: 1 (Table 11)

Q: “422200 (antisense e[5mC]*e[5mC]*eT*dG*dA*dG*dG*d[5mC]*d[5mC]*dA*dG*d[5mC]*dA*dG*dA*dT*d[5mC]*eA*e[5mC]*eG) [compound 422200]” was tested. Which “% Inhibition of human Factor 7 mRNA levels” value did it give?
A: 58%

Q: Which “% Inhibition of human Factor 7 mRNA levels” value does the source give for “422201 (antisense eG*e[5mC]*e[5mC]*dT*dG*dA*dG*dG*d[5mC]*d[5mC]*dA*dG*d[5mC]*dA*dG*dA*dT*e[5mC]*eA*e[5mC]) [compound 422201]” here?
A: 71%

Q: For “422202 (antisense eA*eG*e[5mC]*d[5mC]*dT*dG*dA*dG*dG*d[5mC]*d[5mC]*dA*dG*d[5mC]*dA*dG*dA*eT*e[5mC]*eA) [compound 422202]”, which “% Inhibition of human Factor 7 mRNA levels” value is on record?
A: 49%

Q: Which “% Inhibition of human Factor 7 mRNA levels” value does the source give for “422203 (antisense e[5mC]*eA*eG*d[5mC]*d[5mC]*dT*dG*dA*dG*dG*d[5mC]*d[5mC]*dA*dG*d[5mC]*dA*dG*eA*eT*e[5mC]) [compound 422203]” here?
A: 52%

Q: Which “% Inhibition of human Factor 7 mRNA levels” value does the source give for “422204 (antisense eG*e[5mC]*eA*dG*d[5mC]*d[5mC]*dT*dG*dA*dG*dG*d[5mC]*d[5mC]*dA*dG*d[5mC]*dA*eG*eA*eT) [compound 422204]” here?
A: 72%

Q: “422205 (antisense eA*eG*e[5mC]*dA*dG*d[5mC]*d[5mC]*dT*dG*dA*dG*dG*d[5mC]*d[5mC]*dA*dG*d[5mC]*eA*eG*eA) [compound 422205]” was tested. Which “% Inhibition of human Factor 7 mRNA levels” value did it give?
A: 63%

Q: How did the “% Inhibition of human Factor 7 mRNA levels” value turn out when “422206 (antisense e[5mC]*eA*eG*d[5mC]*dA*dG*d[5mC]*d[5mC]*dT*dG*dA*dG*dG*d[5mC]*d[5mC]*dA*dG*e[5mC]*eA*eG) [compound 422206]” was run?
A: 65%
